{
  "source": "patent EP0312346B1",
  "about": "“E. coli sequence specific acid protease” (GENENCOR INTERNATIONAL, INC., priority 1987, dated 1989)",
  "test_system": "acid protease of E.coli",
  "assay": "Inhibition of the protease cleaving activity (lysis at pH 5, 26 Kd CCP fragment on Western blot)",
  "format": "biochemical",
  "excerpt": "E.coli expressing CCP was lysed at pH 5 in the presence of increasing concentrations of poly-L-lysine or poly-L-arginine. Any protease activity was evidenced by the appearance of the 26 Kd fragment on Western blot. […] No 26 Kd fragment appeared; DTT, PMSF and EDTA had no inhibitory effect on the lysine-lysine lysine-arginine, arginine-lysine or arginine-arginine cleaving activity of the protease.",
  "key": {"[1]": {"details": "1 mM inhibitor, E.coli expressing CCP lysed at pH 5, no 26 Kd fragment appeared on Western blot"}},
  "data": [
    {"substance": "poly-L-arginine", "values": [
      {"measurement": "inhibition of the protease activity", "setting": "[1]", "result": "completely inhibited"},
      {"measurement": "inhibition of the protease activity", "setting": "no concentration stated", "result": "inhibited"}
    ]},
    {"substance": "poly-L-lysine", "values": [
      {"measurement": "inhibition of the protease activity", "setting": "[1]", "result": "completely inhibited"},
      {"measurement": "inhibition of the protease activity", "setting": "no concentration stated", "result": "inhibited"}
    ]}
  ]
}
